From patent publication US12522602B2, “Derivatives having 2,3-dihydro-1H-indene or 2,3-dihydrobenzofuran moiety or pharmaceutically acceptable salt thereof and pharmaceutical compositions comprising the same” (YUHAN CORPORATION, priority 2019, dated 2026)
Read-outs that look alike come from different tables or passages of the source.

Test system: GM1 production in Jurkat cells
Experiment: cells
Type: cell-based

CCCCOc1ccc(-c2ccc3c(c2)CC(C)(C)C3NC(=O)O[C@@H]2CN3CCC2CC3)cc1 (stereo partly drawn) [Example 270, (S)-quinuclidin-3-yl (5-(4-butoxyphenyl)-2,2-dimethyl-2,3-dihydro-1H-inden-1-yl)carbamate]
IC50 (Homo sapiens, Jurkat, 72 h): 2.3 nM

COc1ccnc(OC)c1-c1ccc2c(c1)CC(C)(C)C2NC(=O)O[C@@H]1CN2CCC1CC2 (stereo partly drawn) [Example 271, (S)-quinuclidin-3-yl (5-(2,4-dimethoxypyridin-3-yl)-2,2-dimethyl-2,3-dihydro-1H-inden-1-yl)carbamate]
IC50 (Homo sapiens, Jurkat, 72 h): 30.6 nM

CC(=O)c1sccc1-c1ccc2c(c1)CC(C)(C)C2NC(=O)O[C@@H]1CN2CCC1CC2 (stereo partly drawn) [Example 272, (S)-quinuclidin-3-yl (5-(2-acetylthiophen-3-yl)-2,2-dimethyl-2,3-dihydro-1H-inden-1-yl)carbamate]
IC50 (Homo sapiens, Jurkat, 72 h): 49.3 nM

CC1(C)Cc2cc(/C=C/c3cccc(F)c3)ccc2C1NC(=O)O[C@@H]1CN2CCC1CC2 (stereo partly drawn) [Example 273, (S)-quinuclidin-3-yl (5-((E)-3-fluorostyryl)-2,2-dimethyl-2,3-dihydro-1H-inden-1-yl)carbamate]
IC50 (Homo sapiens, Jurkat, 72 h): 13.4 nM

CCc1ccc(/C=C/c2ccc3c(c2)CC(C)(C)C3NC(=O)O[C@@H]2CN3CCC2CC3)cc1 (stereo partly drawn) [Example 274, (S)-quinuclidin-3-yl (5-((E)-4-ethylstyryl)-2,2-dimethyl-2,3-dihydro-1H-inden-1-yl)carbamate]
IC50 (Homo sapiens, Jurkat, 72 h): 10.3 nM

CC1(C)Cc2cc(/C=C/C3CCCCC3)ccc2C1NC(=O)O[C@@H]1CN2CCC1CC2 (stereo partly drawn) [Example 275, (S)-quinuclidin-3-yl (5-((E)-2-cyclohexylvinyl)-2,2-dimethyl-2,3-dihydro-1H-inden-1-yl)carbamate]
IC50 (Homo sapiens, Jurkat, 72 h): 25 nM

CCC1(CC)Cc2cc(-c3ccc(F)cc3)ccc2C1NC(=O)O[C@@H]1CN2CCC1CC2 (stereo partly drawn) [Example 276, (S)-quinuclidin-3-yl (2,2-diethyl-5-(4-fluorophenyl)-2,3-dihydro-1H-inden-1-yl)carbamate]
IC50 (Homo sapiens, Jurkat, 72 h): 33.2 nM

CCc1ccc(-c2ccc3c(c2)CC(CC)(CC)C3NC(=O)O[C@@H]2CN3CCC2CC3)cc1 (stereo partly drawn) [Example 277, (S)-quinuclidin-3-yl (2,2-diethyl-5-(4-ethylphenyl)-2,3-dihydro-1H-inden-1-yl)carbamate]
IC50 (Homo sapiens, Jurkat, 72 h): 2.7 nM

CCCc1ccc(-c2ccc3c(c2)CC(CC)(CC)C3NC(=O)O[C@@H]2CN3CCC2CC3)cc1 (stereo partly drawn) [Example 278, (S)-quinuclidin-3-yl (2,2-diethyl-5-(4-propylphenyl)-2,3-dihydro-1H-inden-1-yl)carbamate]
IC50 (Homo sapiens, Jurkat, 72 h): 6 nM

CCC1(CC)Cc2cc(-c3ccc(C(C)(C)C)cc3)ccc2C1NC(=O)O[C@@H]1CN2CCC1CC2 (stereo partly drawn) [Example 279, (S)-quinuclidin-3-yl (5-(4-(tert-butyl)phenyl)-2,2-diethyl-2,3-dihydro-1H-inden-1-yl)carbamate]
IC50 (Homo sapiens, Jurkat, 72 h): 7.3 nM

CCCCc1ccc(-c2ccc3c(c2)CC(CC)(CC)C3NC(=O)O[C@@H]2CN3CCC2CC3)cc1 (stereo partly drawn) [Example 280, (S)-quinuclidin-3-yl (5-(4-butylphenyl)-2,2-diethyl-2,3-dihydro-1H-inden-1-yl)carbamate]
IC50 (Homo sapiens, Jurkat, 72 h): 1.6 nM

CCC1(CC)Cc2cc(-c3ccc(C4CC4)cc3)ccc2C1NC(=O)O[C@@H]1CN2CCC1CC2 (stereo partly drawn) [Example 281, (S)-quinuclidin-3-yl (5-(4-cyclopropylphenyl)-2,2-diethyl-2,3-dihydro-1H-inden-1-yl)carbamate]
IC50 (Homo sapiens, Jurkat, 72 h): 5 nM

CCC1(CC)Cc2cc(-c3ccc(C(C)C)cc3)ccc2C1NC(=O)O[C@@H]1CN2CCC1CC2 (stereo partly drawn) [Example 282, (S)-quinuclidin-3-yl (2,2-diethyl-5-(4-isopropylphenyl)-2,3-dihydro-1H-inden-1-yl)carbamate]
IC50 (Homo sapiens, Jurkat, 72 h): 5.6 nM

CCC1(CC)Cc2cc(-c3ccc(OC)cc3)ccc2C1NC(=O)O[C@@H]1CN2CCC1CC2 (stereo partly drawn) [Example 283, (S)-quinuclidin-3-yl (2,2-diethyl-5-(4-methoxyphenyl)-2,3-dihydro-1H-inden-1-yl)carbamate]
IC50 (Homo sapiens, Jurkat, 72 h): 17.2 nM

CCOc1ccc(-c2ccc3c(c2)CC(CC)(CC)C3NC(=O)O[C@@H]2CN3CCC2CC3)cc1 (stereo partly drawn) [Example 284, (S)-quinuclidin-3-yl (5-(4-ethoxyphenyl)-2,2-diethyl-2,3-dihydro-1H-inden-1-yl)carbamate]
IC50 (Homo sapiens, Jurkat, 72 h): 8.5 nM

CCCOc1ccc(-c2ccc3c(c2)CC(CC)(CC)C3NC(=O)O[C@@H]2CN3CCC2CC3)cc1 (stereo partly drawn) [Example 285, (S)-quinuclidin-3-yl (2,2-diethyl-5-(4-propoxyphenyl)-2,3-dihydro-1H-inden-1-yl)carbamate]
IC50 (Homo sapiens, Jurkat, 72 h): 3.7 nM

CCC1(CC)Cc2cc(-c3ccc(OC(C)C)cc3)ccc2C1NC(=O)O[C@@H]1CN2CCC1CC2 (stereo partly drawn) [Example 286, (S)-quinuclidin-3-yl (2,2-diethyl-5-(4-isopropoxyphenyl)-2,3-dihydro-1H-inden-1-yl)carbamate]
IC50 (Homo sapiens, Jurkat, 72 h): 4.1 nM

CCC1(CC)Cc2cc(-c3ccc(CC(C)C)cc3)ccc2C1NC(=O)O[C@@H]1CN2CCC1CC2 (stereo partly drawn) [Example 287, (S)-quinuclidin-3-yl (2,2-diethyl-5-(4-isobutylphenyl)-2,3-dihydro-1H-inden-1-yl)carbamate]
IC50 (Homo sapiens, Jurkat, 72 h): 4.1 nM

CCC1(CC)Cc2cc(-c3cccc(F)c3)ccc2C1NC(=O)O[C@@H]1CN2CCC1CC2 (stereo partly drawn) [Example 288, (S)-quinuclidin-3-yl (2,2-diethyl-5-(3-fluorophenyl)-2,3-dihydro-1H-inden-1-yl)carbamate]
IC50 (Homo sapiens, Jurkat, 72 h): 11.2 nM

CCC1(CC)Cc2cc(-c3cccc(OC)c3)ccc2C1NC(=O)O[C@@H]1CN2CCC1CC2 (stereo partly drawn) [Example 289, (S)-quinuclidin-3-yl (2,2-diethyl-5-(3-methoxyphenyl)-2,3-dihydro-1H-inden-1-yl)carbamate]
IC50 (Homo sapiens, Jurkat, 72 h): 7.4 nM

CCOc1cccc(-c2ccc3c(c2)CC(CC)(CC)C3NC(=O)O[C@@H]2CN3CCC2CC3)c1 (stereo partly drawn) [Example 290, (S)-quinuclidin-3-yl (5-(3-ethoxyphenyl)-2,2-diethyl-2,3-dihydro-1H-inden-1-yl)carbamate]
IC50 (Homo sapiens, Jurkat, 72 h): 12.3 nM

CCC1(CC)Cc2cc(-c3cccc(OC(C)C)c3)ccc2C1NC(=O)O[C@@H]1CN2CCC1CC2 (stereo partly drawn) [Example 291, (S)-quinuclidin-3-yl (2,2-diethyl-5-(3-isopropoxyphenyl)-2,3-dihydro-1H-inden-1-yl)carbamate]
IC50 (Homo sapiens, Jurkat, 72 h): 13.5 nM

CCc1cccc(-c2ccc3c(c2)CC(CC)(CC)C3NC(=O)O[C@@H]2CN3CCC2CC3)c1 (stereo partly drawn) [Example 292, (S)-quinuclidin-3-yl (2,2-diethyl-5-(3-ethylphenyl)-2,3-dihydro-1H-inden-1-yl)carbamate]
IC50 (Homo sapiens, Jurkat, 72 h): 7.8 nM

CCC1(CC)Cc2cc(-c3cccc(C(C)C)c3)ccc2C1NC(=O)O[C@@H]1CN2CCC1CC2 (stereo partly drawn) [Example 293, (S)-quinuclidin-3-yl (2,2-diethyl-5-(3-isopropylphenyl)-2,3-dihydro-1H-inden-1-yl)carbamate]
IC50 (Homo sapiens, Jurkat, 72 h): 8.7 nM

CCC1(CC)Cc2cc(-c3cccc(C(C)(C)C)c3)ccc2C1NC(=O)O[C@@H]1CN2CCC1CC2 (stereo partly drawn) [Example 294, (S)-quinuclidin-3-yl (5-(3-(tert-butyl)phenyl)-2,2-diethyl-2,3-dihydro-1H-inden-1-yl)carbamate]
IC50 (Homo sapiens, Jurkat, 72 h): 10.4 nM

CCC1(CC)Cc2cc(-c3cccc(OC)c3OC)ccc2C1NC(=O)O[C@@H]1CN2CCC1CC2 (stereo partly drawn) [Example 295, (S)-quinuclidin-3-yl (5-(2,3-dimethoxyphenyl)-2,2-diethyl-2,3-dihydro-1H-inden-1-yl)carbamate]
IC50 (Homo sapiens, Jurkat, 72 h): 35 nM

CCC1(CC)Cc2cc(-c3ccc(OC)cc3OC)ccc2C1NC(=O)O[C@@H]1CN2CCC1CC2 (stereo partly drawn) [Example 296, (S)-quinuclidin-3-yl (5-(2,4-dimethoxyphenyl)-2,2-diethyl-2,3-dihydro-1H-inden-1-yl)carbamate]
IC50 (Homo sapiens, Jurkat, 72 h): 15.6 nM

CCC1(CC)Cc2cc(-c3cc(OC)ccc3OC)ccc2C1NC(=O)O[C@@H]1CN2CCC1CC2 (stereo partly drawn) [Example 297, (S)-quinuclidin-3-yl (5-(2,5-dimethoxyphenyl)-2,2-diethyl-2,3-dihydro-1H-inden-1-yl)carbamate]
IC50 (Homo sapiens, Jurkat, 72 h): 3 nM

CCC1(CC)Cc2cc(-c3ccc(OC)c(OC)c3)ccc2C1NC(=O)O[C@@H]1CN2CCC1CC2 (stereo partly drawn) [Example 298, (S)-quinuclidin-3-yl (5-(3,4-dimethoxyphenyl)-2,2-diethyl-2,3-dihydro-1H-inden-1-yl)carbamate]
IC50 (Homo sapiens, Jurkat, 72 h): 63.2 nM

CCC1(CC)Cc2cc(-c3cc(OC)cc(OC)c3)ccc2C1NC(=O)O[C@@H]1CN2CCC1CC2 (stereo partly drawn) [Example 299, (S)-quinuclidin-3-yl (5-(3,5-dimethoxyphenyl)-2,2-diethyl-2,3-dihydro-1H-inden-1-yl)carbamate]
IC50 (Homo sapiens, Jurkat, 72 h): 25.3 nM

CCC1(CC)Cc2cc(-c3c(OC)cccc3OC)ccc2C1NC(=O)O[C@@H]1CN2CCC1CC2 (stereo partly drawn) [Example 300, (S)-quinuclidin-3-yl (5-(2,6-dimethoxyphenyl)-2,2-diethyl-2,3-dihydro-1H-inden-1-yl)carbamate]
IC50 (Homo sapiens, Jurkat, 72 h): 23 nM

CCC1(CC)Cc2cc(-c3cccc(C(F)F)c3)ccc2C1NC(=O)O[C@@H]1CN2CCC1CC2 (stereo partly drawn) [Example 301, (S)-quinuclidin-3-yl (5-(3-(difluoromethyl)phenyl)-2,2-diethyl-2,3-dihydro-1H-inden-1-yl)carbamate]
IC50 (Homo sapiens, Jurkat, 72 h): 9.6 nM

CCC1(CC)Cc2cc(-c3cccc(N(C)C)c3)ccc2C1NC(=O)O[C@@H]1CN2CCC1CC2 (stereo partly drawn) [Example 302, (S)-quinuclidin-3-yl (5-(3-(dimethylamino)phenyl)-2,2-diethyl-2,3-dihydro-1H-inden-1-yl)carbamate]
IC50 (Homo sapiens, Jurkat, 72 h): 4 nM

CCOc1c(C)cc(-c2ccc3c(c2)CC(CC)(CC)C3NC(=O)O[C@@H]2CN3CCC2CC3)cc1C (stereo partly drawn) [Example 303, (S)-quinuclidin-3-yl (5-(4-ethoxy-3,5-dimethylphenyl)-2,2-diethyl-2,3-dihydro-1H-inden-1-yl)carbamate]
IC50 (Homo sapiens, Jurkat, 72 h): 27.2 nM

CCCOc1c(C)cc(-c2ccc3c(c2)CC(CC)(CC)C3NC(=O)O[C@@H]2CN3CCC2CC3)cc1C (stereo partly drawn) [Example 304, (S)-quinuclidin-3-yl (5-(3,5-dimethyl-4-propoxyphenyl)-2,2-diethyl-2,3-dihydro-1H-inden-1-yl)carbamate]
IC50 (read-out: IC50): 23.5 nM

CCCCOc1c(C)cc(-c2ccc3c(c2)CC(CC)(CC)C3NC(=O)O[C@@H]2CN3CCC2CC3)cc1C (stereo partly drawn) [Example 305, (S)-quinuclidin-3-yl (5-(4-butoxy-3,5-dimethylphenyl)-2,2-diethyl-2,3-dihydro-1H-inden-1-yl)carbamate]
IC50 (Homo sapiens, Jurkat, 72 h): 9.8 nM
